Reference: patent publication US20080261999A1, “Azabicycloalkane Derivatives Useful as Nicotinic Acetylcholine Receptor Agonists” (priority 2005, published 2008)
pEC50, pKi: −log10 of the molar value.

Key:
[1] = system: rat striatal slices; assay: [3H] Dopamine release assay from rat striatal slices; assay type: cell-based
Protocol: [^3H] Dopamine Release Assay from Rat Striatal Slices
Release of [^3H]dopamine from rat striatal slices is performed as follows. Male Lister-Hooded rats (250-350 g) are sacrificed by exposure to CO2 followed by cervical dislocation. Striata from 2 rats is dissected and chopped 3 times at 150 μm using a Mcllwain tissue chopper, each time rotating the tissue through 60°. Slices are dispersed in Krebs bicarbonate buffer (118 mM NaCl, 2.4 mM KCl, 2.4 mM CaCl2.2H2O, 1.2 mM KH2PO4, 1.2 mM MgSO4.7H2O, 25 mM NaHCO3, 10 mM glucose, 1 mM ascorbic acid, gassed with 5% CO2/95% O2 for 1 h, pH 7.4) including […] pargyline, and incubated with [^3H]dopamine (50 nM) for 30 minutes at 37° C. […]
Optiphase Supermix (Wallac) scintillation fluid (170 μl) is added to each well of the collection plates prior to plates being heat sealed and radioactivity quantified using a Wallac 1450 Microbeta 96-well plate counter (Wallac Oy, Turku, Finland, counting efficiency 25%). Radioactivity remaining in the slices is measured by digestion of the tissue in 0.2 ml Solvable (Packard Biosciences) for 1 h followed by addition of 0.5 ml isopropyl alcohol and 4.5 ml Hlionic Fluor scintillation fluid (Packard Biosciences). Radioactivity was then quantified using a Wallac 1410 scintillation counter (Wallac Oy, Turku, Finland, counting efficiency 35%). […]

[2] = target: T1, human α3β4 nAChRs (Homo sapiens, UniProt P30926+P32297); assay: Nicotinic receptor radioligand binding SPA, [3H]-epibatidine, α3β4; conditions: HEK-293 membranes, 2 nM [3H]-epibatidine
T1 construct: expressed in transfected cells; host or cells: HEK-293
Protocol: (§1) Cell pastes from large-scale production of HEK-293 cells expressing human α4β2, or α3β4 nAChRs are homogenised in 4 volumes of the appropriate buffer (50 mM Tris.HCl containing 150 mM NaCl and 5 mM KCl, pH 7.4). The homogenate is centrifuged twice (40,000 g, 10 minutes, 4° C.) and the pellets re-suspended in 4 volumes of Tris.HCl buffer after the first spin and 8 volumes after the second spin. The re-suspended homogenate is centrifuged (100 g, 10 minutes, 4° C.) and the supernatant kept and re-centrifuged (40,000 g, 20 minutes, 4° C.). The pellet is re-suspended in Tris.HCl buffer supplemented with 10% w/v sucrose. The membrane preparation is stored in 1 ml aliquots at −80° C. until required. The protein concentration of the membrane preparation is determined using a BCA protein assay reagent kit.
(§2) 96-well SPA radioligand binding assays are performed in a final volume of 250 μl Tris-HCl buffer (50 mM Tris-HCl, 150 mM NaCl, 5 mM KCl, pH 7.4) with 1 nM ((α4β2) or 2 nM (α3β4) [^3H]-epibatidine (53 Ci/mmol; Amersham); 1 mg/well ((α4β2) or 1.5 mg/well (α3β4) WGA-coated PVT SPA beads (Amersham) and 30 μg/well membrane protein for all 3 assay types. Non-specific binding (<10% for all 3 assay types) is determined using 10 μM epibatidine.
(§3) Reactions are allowed to equilibrate for 2-4 hours at room temperature prior to reading on a Trilux Scintillation counter (Perkin Elmer). […]

[3] = target: T2, human α4β2 nAChRs (Homo sapiens, UniProt P17787+P43681); assay: Nicotinic receptor radioligand binding SPA, [3H]-epibatidine, α4β2
T2 construct: expressed in transfected cells; host or cells: HEK-293
Protocol: as §1, §2, §3

T2 sequence (P43681 29-627): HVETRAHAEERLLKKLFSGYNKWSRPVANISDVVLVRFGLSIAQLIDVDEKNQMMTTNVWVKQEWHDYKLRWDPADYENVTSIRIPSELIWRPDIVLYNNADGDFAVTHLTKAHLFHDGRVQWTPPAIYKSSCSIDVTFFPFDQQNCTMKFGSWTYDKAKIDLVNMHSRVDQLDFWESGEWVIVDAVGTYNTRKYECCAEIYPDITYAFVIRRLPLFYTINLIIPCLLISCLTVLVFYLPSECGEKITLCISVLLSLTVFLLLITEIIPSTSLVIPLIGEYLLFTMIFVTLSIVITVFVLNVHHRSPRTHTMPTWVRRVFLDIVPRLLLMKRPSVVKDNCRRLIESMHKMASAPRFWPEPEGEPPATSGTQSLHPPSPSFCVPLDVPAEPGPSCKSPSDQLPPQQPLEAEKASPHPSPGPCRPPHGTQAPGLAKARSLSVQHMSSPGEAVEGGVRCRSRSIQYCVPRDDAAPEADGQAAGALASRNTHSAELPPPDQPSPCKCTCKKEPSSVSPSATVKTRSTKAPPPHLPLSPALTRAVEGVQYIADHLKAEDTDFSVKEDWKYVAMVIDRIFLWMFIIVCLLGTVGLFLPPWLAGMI
T2 sequence (P17787 26-502): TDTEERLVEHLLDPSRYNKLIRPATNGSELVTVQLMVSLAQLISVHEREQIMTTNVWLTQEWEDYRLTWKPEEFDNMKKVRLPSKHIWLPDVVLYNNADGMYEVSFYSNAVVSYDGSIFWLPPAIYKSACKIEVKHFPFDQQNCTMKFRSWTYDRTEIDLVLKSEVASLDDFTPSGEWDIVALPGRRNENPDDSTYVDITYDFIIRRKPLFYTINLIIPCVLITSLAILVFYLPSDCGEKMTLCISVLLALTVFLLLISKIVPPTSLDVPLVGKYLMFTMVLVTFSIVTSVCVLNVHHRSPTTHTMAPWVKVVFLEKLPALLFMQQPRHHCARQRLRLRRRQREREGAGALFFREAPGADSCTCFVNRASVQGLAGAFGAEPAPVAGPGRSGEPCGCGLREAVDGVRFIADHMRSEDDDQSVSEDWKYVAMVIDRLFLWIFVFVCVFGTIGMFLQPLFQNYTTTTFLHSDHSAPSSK
T1 sequence (P32297 32-505): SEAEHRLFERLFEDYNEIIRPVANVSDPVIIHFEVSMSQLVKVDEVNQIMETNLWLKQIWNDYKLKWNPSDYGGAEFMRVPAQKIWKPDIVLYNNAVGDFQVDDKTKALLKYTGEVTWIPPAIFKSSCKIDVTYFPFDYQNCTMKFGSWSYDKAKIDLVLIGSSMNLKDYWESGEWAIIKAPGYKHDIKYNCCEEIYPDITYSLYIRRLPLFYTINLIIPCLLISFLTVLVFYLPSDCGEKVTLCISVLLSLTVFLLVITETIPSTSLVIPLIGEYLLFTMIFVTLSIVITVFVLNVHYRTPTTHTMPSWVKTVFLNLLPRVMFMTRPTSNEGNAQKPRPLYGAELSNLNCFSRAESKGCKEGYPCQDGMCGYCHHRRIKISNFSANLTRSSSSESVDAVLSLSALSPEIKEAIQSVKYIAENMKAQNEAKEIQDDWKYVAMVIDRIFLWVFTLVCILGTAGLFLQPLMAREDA
T1 sequence (P30926 22-498): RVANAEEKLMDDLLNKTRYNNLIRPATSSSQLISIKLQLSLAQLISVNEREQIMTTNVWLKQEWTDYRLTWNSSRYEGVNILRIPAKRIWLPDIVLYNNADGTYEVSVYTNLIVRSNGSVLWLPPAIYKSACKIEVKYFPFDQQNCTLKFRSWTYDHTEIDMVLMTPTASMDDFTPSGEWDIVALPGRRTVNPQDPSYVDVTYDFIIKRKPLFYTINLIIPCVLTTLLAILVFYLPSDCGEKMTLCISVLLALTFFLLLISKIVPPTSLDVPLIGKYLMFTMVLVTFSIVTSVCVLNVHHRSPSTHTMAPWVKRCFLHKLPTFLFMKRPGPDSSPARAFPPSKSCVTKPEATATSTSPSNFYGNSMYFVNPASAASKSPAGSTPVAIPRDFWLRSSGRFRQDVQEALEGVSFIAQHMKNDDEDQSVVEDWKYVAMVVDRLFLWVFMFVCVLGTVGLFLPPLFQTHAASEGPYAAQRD

For `Fc1cc(C2=CC3CNCC(C2)C3)cc(-c2ccoc2)c1` (centres unmarked) [Example 20], the pEC50 [1] was 6.87, the “Efficacy Dopamine release %” value [1] was 41.7% and the pKi [2] was 6.32. The pKi ([3]; HEK-293 membranes, 1 nM [3H]-epibatidine) was 8.27 and the “Ki α3β4/Ki α4β2” value ([3]; selectivity for α4β2 over α3β4) was 89.2.
